Assay: Variable temperature X-ray powder diffraction (VT-XRPD) of Form 3: solid-state thermal stability
Type: physicochemical
Protocol: Variable temperature studies were performed with an Anton Paar TTK450 temperature chamber under computer control through an Anton Paar TCU100 temperature control unit. Typically, the measurements were done with a nitrogen flow through the camera. Two measurement schemes were used, restricted and continuous. In the restricted mode, measurements were made only after the TK450 chamber reached the requested temperature. In the continuous mode, the sample was heated at 10° C./minute and fast scans were measured as the temperature changed. After the pre-selected temperature was reached, the sample was cooled at 35° C./minute. To monitor for changes during the cooling, fast scans were again measured. At 25° C., a slow scan was measured. The temperatures chosen were based on DSC results. For the diffractometer set-up a 10 mm beam mask, 0.04 radian Soller slits and fixed (¼°) divergence and anti-scatter (⅛°) slits were inserted on the incident beam side. A fixed 0.10 mm receiving slit, 0.04 radian Soller slits and a 0.02 mm Nickel filter were inserted on the diffracted beam side. […] With the nitrogen gas supply turned off, the camera returned to ambient conditions. The humidity in the ambient state varies with the humidity in the laboratory, typically 30 to 40%, and with the temperature in the camera. As the temperature is raised, the relative humidity will drop. […]

Cn1c(CCCC(=O)O)nc2cc(N(CCCl)CCCl)ccc21 [Form 3, 4-{5-[Bis(2-chloroethyl)amino]-1-methyl-2-benzimidazolyl}butyric acid]
temperature after which the sample converts to amorphous material: > 133 °C
solid-solid transformations on heating (temperature range of 25° C. to 50° C.): No significant, solid-solid transformations
